From PubChem BioAssay (NCI)
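Cells were grown in 96-well plates and exposed to each compound for 48 hours at five concentrations; endpoints were interpolated linearly between bracketing concentrations, or set to the highest concentration if not reached. GI50 = concentration required for 50% inhibition of growth. TGI marks complete inhibition of growth.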

What was measured:
Test in all cases: NCI-60 cell line screen, 48 h
A549 NSCLC = system: A549 NSCLC
SK-MEL-28 melanoma = system: SK-MEL-28 melanoma
OVCAR-8 ovarian = system: OVCAR-8 ovarian
MDA-MB-435 = system: MDA-MB-435
MCF7 breast = system: MCF7 breast
SNB-19 CNS = system: SNB-19 CNS
NCI/ADR-RES ovarian = system: NCI/ADR-RES ovarian
NCI-H23 lung = system: NCI-H23 lung
PC-3 prostate = system: PC-3 prostate
A498 renal = system: A498 renal

| SMILES | GI50 (A549 NSCLC) [µM] | TGI (A549 NSCLC) [µM] | GI50 (SK-MEL-28 melanoma) [µM] | TGI (SK-MEL-28 melanoma) [µM] | GI50 (OVCAR-8 ovarian) [µM] | TGI (OVCAR-8 ovarian) [µM] | GI50 (MDA-MB-435) [µM] | TGI (MDA-MB-435) [µM] | GI50 (MCF7 breast) [µM] | TGI (MCF7 breast) [µM] | GI50 (SNB-19 CNS) [µM] | TGI (SNB-19 CNS) [µM] | GI50 (NCI/ADR-RES ovarian) [µM] | TGI (NCI/ADR-RES ovarian) [µM] | GI50 (NCI-H23 lung) [µM] | TGI (NCI-H23 lung) [µM] | GI50 (PC-3 prostate) [µM] | TGI (PC-3 prostate) [µM] | TGI (A498 renal) [µM] | GI50 (A498 renal) [µM] |
| --- | --- | --- | --- | --- | --- | --- | --- | --- | --- | --- | --- | --- | --- | --- | --- | --- | --- | --- | --- | --- |
| CCNCCCn1c2c(c3ccc([N+](=O)[O-])cc3c1=O)C(=O)c1cc(OC)cnc1-2 | 0.0776 | 0.296 | 0.227 | 1.56 | 0.0519 | 0.479 | 0.133 | 0.744 | 0.0186 | 1.37 | 0.0576 | 2.53 | 0.0559 | 0.689 | 0.0436 | 0.323 | 0.249 | 8.67 |  |  |
| COC1=C(Br)C(=O)C2=C(C1=O)C1C3=C(C(=O)C=CC3=O)C2c2ccccc21 (stereo not given) | 42.1 | > 100 | 30.7 | > 100 | 24.3 | > 100 | 18.2 | 36.3 | 22.7 | > 100 | 16.6 | 43.3 | 18.8 | 61.5 | 17.3 | 48.5 | 4.35 | 25.6 |  |  |
| COc1ccccc1-c1cc(=O)c2ccc(OC)c(OC)c2o1 |  | > 100 |  | > 100 |  | > 100 |  | > 100 |  | > 100 |  | > 100 |  | > 100 |  | > 100 |  |  | > 100 |  |
| N#CC1C2CCC3(CC2CCN1C(=O)c1ccccc1)OCCO3 (stereo not given) |  | > 100 |  | > 100 |  | > 100 |  |  |  |  |  | > 100 |  |  |  | > 100 |  |  | > 100 |  |
| Cc1cc2cn3c4cccnc4[nH]c(=O)c3c2cc1C |  |  | 1.53 | 2.95 |  |  |  |  |  |  |  |  | 1.39 | 2.96 | 1.37 | 2.74 | 1.42 | 2.89 | 18.5 | 3.8 |
| Cc1c2c(cc3c(=O)ccn(CCN(C)C)c13)c(=O)ccn2CCN(C)C |  | 48.9 |  | 35.5 |  | 21.8 |  |  |  |  |  | 35.7 |  |  |  | 33.9 |  |  | 38 |  |
| Clc1ccc(Nc2ccnc(NCCCNc3ccnc4cc(Cl)ccc34)n2)cc1 | 1.73 | 3.35 | 1.64 | 3.07 | 1.82 | 3.62 |  |  |  |  |  |  | 1.76 | 3.38 | 1.79 | 3.53 | 1.58 | 3.13 | 2.66 | 1.29 |
| C1=Nc2ccccc2C=Nc2ccccc2C=Nc2ccccc2C=Nc2ccccc21.[Cl-].[Pt+2] | 28.7 | > 100 | 14.8 | 64.4 | 17.5 | > 100 |  |  |  |  | 42.8 | > 100 |  |  |  |  |  |  | 61.5 | 23.2 |
| CCSc1nnc(-c2ccc3ccccc3c2O)n1-c1ccc(Cl)cc1 | 4.51 | > 100 | > 100 | > 100 | 5.5 | > 100 |  |  | 6.66 | > 100 | 5.84 | > 100 | 4.45 | > 100 | > 100 | > 100 | 50.1 | > 100 | > 100 | > 100 |
| COc1cc2c(cn1)[nH]c1ccccc12 |  | > 100 |  | > 100 |  | > 100 |  |  |  |  |  | > 100 |  |  |  | > 100 |  |  |  |  |
| COc1cc(Nc2nc3ccc(C(F)(F)F)cc3nc2-c2ccccc2)cc(OC)c1OC |  | > 100 |  | > 100 |  | > 100 |  |  |  |  |  |  |  |  |  | > 100 |  |  | 78 |  |
| N#CC1CC2(C(=O)C1=O)c1ccccc1-c1ccccc12 (stereo not given) |  | > 100 |  | > 100 |  | > 100 |  |  |  |  |  | > 100 |  |  |  | > 100 |  |  | > 100 |  |
| C=C1C(=O)OC2CC(C)C3C=CC(=O)C3CC12 (stereo not given) |  | 24 |  | 4.16 |  | 14.4 |  | 12.4 |  |  |  | 37.7 |  |  |  | 4.03 |  | 7.17 | 24.3 |  |
| Cc1ccc(Sc2sc(-c3ccccc3)nc2[P+](c2ccccc2)(c2ccccc2)c2ccccc2)cc1 |  |  | 0.605 | 1.88 | 0.305 | 1.67 | 0.291 | 0.882 |  |  | 0.33 | 1.33 |  |  | 0.27 | 0.811 | 0.283 | 1.18 | 0.568 | 0.137 |
| COc1ccc2c(c1)/C(=C/c1cc(OC)c(OC)c(OC)c1)C(=O)N2C | 3.64 | > 67.1 | 3.58 | 22.5 | 4.21 | > 74.8 |  |  | 1.83 | > 25.8 | 3.19 | > 27.7 | 3.37 | > 39.7 | 4.42 | > 100 | 2.92 | > 100 | 5.92 | 2.5 |
| O=C1CS/C(=N\S(=O)(=O)c2ccc(N3N=C4c5ccccc5CC4C3c3ccc(Cl)cc3)cc2)N1c1ccccc1 (stereo not given) | 24.2 | 65.8 |  |  | 34.6 | > 100 | 30.6 | 88.8 | 18.7 | 47.9 | 23.3 | > 100 |  |  |  |  | 22.6 | 58.6 | 53 | 25.6 |
| CSc1ncnc2c1CCN2 | > 100 | > 100 | > 100 | > 100 | > 100 | > 100 |  | 6.04 |  |  | > 100 | > 100 |  |  | > 100 | > 100 |  |  |  |  |
| C1COCCOCCOCCOCCO1.CC(=O)[CH-]C(C)=O.CC(=O)[CH-]C(C)=O.CC(=O)[CH-]C(C)=O.[V] | 22.7 | > 100 |  | 23.9 | 30.6 | 76.3 |  |  |  |  | 15.3 | 32.6 |  |  | 15.6 | 31.6 |  |  | 66.3 | 25 |
| O=C(NCc1ccncc1)C1COc2cc(-c3cc(=O)c4ccccc4o3)ccc2O1 (stereo not given) |  | > 100 |  | > 100 |  | > 100 |  |  |  |  |  |  |  |  |  | > 100 |  |  |  |  |
